Results published in patent US20260242395A1, “AMINOHETEROARYL KINASE INHIBITORS” (ALLORION THERAPEUTICS INC, priority 2022, published 2026).

Experiments:
Assay type in all cases: biochemical
CDK1/CyclinB = molecular target: T1, CDK1/CyclinB (Homo sapiens, UniProt P06493); assay: CDK1/CyclinB kinase inhibitory activity (Caliper mobility shift); settings: enzyme 3 nM, ATP 20 μM, 28° C. 30 min; read-out: CDK1/Cyclin B1 IC50
T1 construct: purchased Millipore 14-450M
Description: CDK1/CyclinB kinase inhibitory activity (IC50): 5 μl of various dilutions of test compound in 1× kinase buffer (50 mM HEPES pH 7.5, 10 mM MgCl2, 2 mM DTT and 0.01% Brij-35) was mixed with 10 μL of CDK1/CyclinB (Millipore, 14-450M #, final concentration 3 nM in 1× Kinase buffer) in 384 plates and incubated at room temperature for 10 min. To initiate each reaction, 10 μL of peptide solution containing fluorescently-labeled-peptide 18(5-FAM-QSPKKG-CONH2) (GL, 114202 #, final concentration 3000 nM) and ATP (final concentration 20 μM) in 1× Kinase buffer was added to each of the wells containing test compound and CDK1/CyclinB mixture. The reaction is then allowed to proceed at 28° C. for 30 min and terminated by the addition of 25 μL stop buffer (100 mM HEPES pH 7.5, 50 mM EDTA, 0.2% Coating Reagent #3 (Perkin Elmer, 760050 #) and 0.015% Brij-35).
(§1) Following the kinase reaction, Caliper EZ reader II (Downstream voltages: −500V, Upstream voltages: −2250V, Base pressure −0.5 PSI, Screen pressure −1.2 PSI) was used to separate the phosphorylated (product) and the unphosphorylated (substrate) fluorescently-labeled peptide 18 based on their different mobility. Both substrate and product were measured and the ratio of these values were used to generate % conversion by Caliper EZ reader II. These conversion values were then transformed into % inhibition of kinase activity using the formula: % Inhibition=[(MA−X)/(MA−MI)]×100% where MA=conversion value of DMSO only controls, MI=conversion value of no enzyme controls and X=conversion value at any given compound dose. IC50 values were then calculated by plotting dose-response curves and then using the XLfit application in Excel software.

CDK7/CyclinH/MAT1 = molecular target: T2, CDK7/CyclinH/MAT1 (Homo sapiens, UniProt P50613); assay: CDK7/CyclinH/MAT1 kinase inhibitory activity (Caliper mobility shift); settings: enzyme 12.5 nM, ATP 70 μM, 28° C. 30 min; read-out: CDK7/Cyclin H/MAT1 IC50
T2 construct: purchased Millipore 14-476M
T2 sequence (P50613 whole entry): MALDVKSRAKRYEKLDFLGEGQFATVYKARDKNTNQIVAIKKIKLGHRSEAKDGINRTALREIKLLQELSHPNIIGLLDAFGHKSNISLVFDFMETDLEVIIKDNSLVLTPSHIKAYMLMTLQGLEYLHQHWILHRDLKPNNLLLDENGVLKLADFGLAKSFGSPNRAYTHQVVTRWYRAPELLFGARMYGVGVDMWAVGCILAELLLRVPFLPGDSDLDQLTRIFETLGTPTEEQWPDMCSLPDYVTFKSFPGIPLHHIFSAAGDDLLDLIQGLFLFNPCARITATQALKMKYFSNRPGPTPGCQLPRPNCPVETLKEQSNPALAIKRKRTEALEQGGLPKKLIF
T2 sequence (P51946 whole entry partner): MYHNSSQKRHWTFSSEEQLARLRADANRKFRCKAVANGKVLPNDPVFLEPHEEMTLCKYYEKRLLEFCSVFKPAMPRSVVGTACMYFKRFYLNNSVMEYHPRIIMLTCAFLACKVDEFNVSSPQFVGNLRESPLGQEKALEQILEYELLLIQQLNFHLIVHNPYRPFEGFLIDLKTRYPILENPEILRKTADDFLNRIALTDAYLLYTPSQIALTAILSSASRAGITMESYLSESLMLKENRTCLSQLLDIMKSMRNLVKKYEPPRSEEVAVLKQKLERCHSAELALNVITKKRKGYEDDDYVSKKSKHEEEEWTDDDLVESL
T2 sequence (P51948 whole entry partner): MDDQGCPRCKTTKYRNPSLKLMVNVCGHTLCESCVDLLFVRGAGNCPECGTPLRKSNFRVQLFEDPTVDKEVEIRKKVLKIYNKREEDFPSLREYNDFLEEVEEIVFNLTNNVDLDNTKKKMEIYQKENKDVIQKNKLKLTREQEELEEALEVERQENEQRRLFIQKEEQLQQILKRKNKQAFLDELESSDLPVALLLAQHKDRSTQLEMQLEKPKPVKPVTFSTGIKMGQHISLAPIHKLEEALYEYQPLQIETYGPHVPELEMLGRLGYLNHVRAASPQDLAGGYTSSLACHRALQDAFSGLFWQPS
Description: (§2) CDK7/CyclinH/MAT1 kinase inhibitory activity (IC50): 5 μl of various dilutions of test compound in 1× kinase buffer (20 mM HEPES, pH 7.5, 10 mM MgCl2, 2 mM DTT and 0.01% Triton X-100) was mixed with 10 μL of CDK7/CyclinH/MAT1 (Millipore, 14-476M #, final concentration 12.5 nM in 1× Kinase buffer) in 384 plates and incubated at room temperature for 10 min. To initiate each reaction, 10 μL of peptide solution containing fluorescently-labeled-peptide CTD3 (5-FAM-[…], GL, SY346885 #, final concentration 3000 nM) and ATP (final concentration 70 μM) in 1× Kinase buffer was added to each of the wells containing test compound and CDK7/CyclinH/MAT1 mixture. The reaction is then allowed to proceed at 28° C. for 30 min and terminated by the addition of 25 μL stop buffer (100 mM HEPES pH 7.5, 50 mM EDTA, 0.2% Coating Reagent #3 (Perkin Elmer, 760050 #) and 0.015% Brij-35).
as §1, with “the phosphoiylated” for “the phosphorylated”, “peptide CTD3” for “peptide 18”

CDK9/CyclinT1 = molecular target: T3, CDK9/CyclinT1 (Homo sapiens, UniProt P50750); assay: CDK9/CyclinT1 kinase inhibitory activity (Caliper mobility shift); settings: enzyme 12.5 nM, ATP 10M, 28° C. 30 min; read-out: CDK9/Cyclin T1 IC50
T3 construct: purchased Millipore 14-685M
T3 sequence (P50750 whole entry): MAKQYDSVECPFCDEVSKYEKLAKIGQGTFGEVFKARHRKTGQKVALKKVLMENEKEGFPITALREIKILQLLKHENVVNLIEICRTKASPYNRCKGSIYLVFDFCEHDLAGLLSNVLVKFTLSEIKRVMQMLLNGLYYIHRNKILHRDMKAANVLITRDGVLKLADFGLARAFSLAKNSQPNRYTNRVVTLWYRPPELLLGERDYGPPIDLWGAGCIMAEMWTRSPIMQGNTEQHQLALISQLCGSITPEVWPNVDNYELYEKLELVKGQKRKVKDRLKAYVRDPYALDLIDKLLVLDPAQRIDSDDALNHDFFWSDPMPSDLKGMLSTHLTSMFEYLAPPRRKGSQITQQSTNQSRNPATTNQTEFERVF
T3 sequence (O60563 whole entry partner): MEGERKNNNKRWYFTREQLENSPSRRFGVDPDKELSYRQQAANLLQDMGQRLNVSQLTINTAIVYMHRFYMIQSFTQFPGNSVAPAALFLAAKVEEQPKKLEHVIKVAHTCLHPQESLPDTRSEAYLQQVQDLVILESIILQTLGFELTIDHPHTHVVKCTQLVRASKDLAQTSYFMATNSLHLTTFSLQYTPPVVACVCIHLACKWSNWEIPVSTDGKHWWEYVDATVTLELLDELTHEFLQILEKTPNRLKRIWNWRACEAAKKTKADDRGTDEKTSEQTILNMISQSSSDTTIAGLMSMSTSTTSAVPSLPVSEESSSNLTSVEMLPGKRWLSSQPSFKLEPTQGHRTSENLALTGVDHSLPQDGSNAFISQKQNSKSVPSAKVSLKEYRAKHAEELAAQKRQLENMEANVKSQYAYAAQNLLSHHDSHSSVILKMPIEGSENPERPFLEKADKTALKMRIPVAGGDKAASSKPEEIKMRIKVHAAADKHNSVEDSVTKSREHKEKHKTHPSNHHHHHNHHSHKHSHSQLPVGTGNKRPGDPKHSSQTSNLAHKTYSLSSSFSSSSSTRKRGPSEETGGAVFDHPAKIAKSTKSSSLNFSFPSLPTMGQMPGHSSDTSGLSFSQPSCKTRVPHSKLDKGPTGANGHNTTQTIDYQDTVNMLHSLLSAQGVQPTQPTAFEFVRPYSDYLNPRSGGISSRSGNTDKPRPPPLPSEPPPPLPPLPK
Description: as §2, with “CDK9/CyclinT1” for “CDK7/CyclinH/MAT1”, “14-685M” for “14-476M”, “fluorescently-labeled -peptide” for “fluorescently-labeled-peptide”, “[…])” for “70 μM)”
as §1, with “CTD3” for “18”

T1 sequence (P06493 whole entry): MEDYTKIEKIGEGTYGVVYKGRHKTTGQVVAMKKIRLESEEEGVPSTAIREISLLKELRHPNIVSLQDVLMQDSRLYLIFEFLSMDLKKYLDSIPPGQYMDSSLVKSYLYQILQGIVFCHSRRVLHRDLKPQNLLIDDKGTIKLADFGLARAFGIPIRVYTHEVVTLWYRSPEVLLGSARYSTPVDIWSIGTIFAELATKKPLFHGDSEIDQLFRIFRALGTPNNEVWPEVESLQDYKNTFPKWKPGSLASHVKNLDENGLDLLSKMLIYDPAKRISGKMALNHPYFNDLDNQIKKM
T1 sequence (P14635 whole entry partner): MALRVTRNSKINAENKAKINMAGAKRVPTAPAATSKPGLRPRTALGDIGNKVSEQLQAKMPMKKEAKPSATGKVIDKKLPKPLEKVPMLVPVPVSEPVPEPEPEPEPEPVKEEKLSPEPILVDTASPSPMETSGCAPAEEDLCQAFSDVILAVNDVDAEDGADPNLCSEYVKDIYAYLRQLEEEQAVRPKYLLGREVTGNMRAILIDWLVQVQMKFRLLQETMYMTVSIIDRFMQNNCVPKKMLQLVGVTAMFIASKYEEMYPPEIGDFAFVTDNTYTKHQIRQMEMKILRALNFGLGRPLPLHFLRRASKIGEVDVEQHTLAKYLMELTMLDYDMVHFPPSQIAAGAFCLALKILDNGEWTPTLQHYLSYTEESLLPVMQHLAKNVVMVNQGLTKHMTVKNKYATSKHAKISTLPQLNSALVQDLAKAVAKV

Compound | IC50 (CDK1/CyclinB) [nM] | IC50 (CDK7/CyclinH/MAT1) [nM] | IC50 (CDK9/CyclinT1) [nM]
Cc1nc2c(F)cc(-c3nc(N[C@@H]4CCOC[C@H]4O)ncc3F)cc2c2c1CC1(CC1)NC2 [Example 65] | 100 to 1000 | 100 to 1000 | 100 to 1000
[2H]c1nc2c(F)cc(-c3nc(N[C@@H]4CCOC[C@H]4O)ncc3C)cc2c2c1CC1(CC1)NC2 [Example 67] | ≥ 1000 | ≥ 1000 | 100 to 1000
[2H]c1nc(N[C@@H]2CCOC[C@H]2O)nc(-c2cc(F)c3nc([2H])c4c(c3c2)CNC2(CC2)C4)c1Cl [Example 68] | 100 to 1000 | 100 to 1000 | 100 to 1000
[2H]c1nc(N[C@@H]2CCOC[C@H]2O)nc(-c2cc(F)c3nc(C)c(C(C)(C)O)cc3c2)c1F [Example 83] | 100 to 1000 | 100 to 1000 | 100 to 1000
[2H]c1nc2c(F)cc(-c3nc(N[C@@H]4CCOC[C@H]4O)ncc3F)cc2c(C)c1C(C)(C)O [Example 94] | 100 to 1000 | 10 to 100 | 100 to 1000
Cc1nc2c(F)cc(-c3nc(N[C@@H]4CCOC[C@H]4O)ncc3Cl)cc2c2c1CC(C)(C)NC2 [Example 98] | ≥ 1000 | ≥ 1000 | 100 to 1000
[2H]c1nc2c(F)cc(-c3nc(N[C@@H]4CCOC[C@H]4O)ncc3Cl)cc2c2c1CC(C)(C)NC2 [Example 100] | 100 to 1000 | 100 to 1000 | 10 to 100
[2H]c1nc2c(F)cc(-c3nc(N[C@@H]4CCOC[C@H]4O)ncc3C)cc2c2c1CC(C)(C)NC2 [Example 102] | ≥ 1000 | ≥ 1000 | 100 to 1000
CC1(C)Cc2cnc3c(F)cc(-c4ccnc(N[C@@H]5CCOC[C@H]5O)n4)cc3c2CN1 [Example 107] | 100 to 1000 | 100 to 1000 | 100 to 1000
